11 compounds from patent US20230159527A1, “COMPOUNDS AS BCL-2 INHIBITORS” (Fochon Pharmaceuticals, Ltd., priority 2020, published 2023) can be followed below.

Where two headings read alike, the source gives them in different places.

One experiment relates to DoHH2 cells. As to the kind of experiment: Cell proliferation assay, DoHH2 cells (MTS, 120 h). It counts as cell-based. How it is done:
MTS testing kit was purchased from Promega (Madison, Wis., USA). The RPMI-1640, Fetal bovine serum and Penicillin-Streptomycin were purchased from BI (Biological Industries, Beit Haemek, Israel). Dimethyl sulfoxide (DMSO) was purchased from Sigma (St. Louis, Mo., USA). DoHH2 (DSMZ catalog #: ACC47) cells were cultured in RPMI-1640 supplemented with Penicillin-Streptomycin and 10% FBS.
To investigate whether a compound is able to inhibit the activity of BCL-2 in cells, a mechanism-based assay using DoHH2 lines was developed. In this assay, the inhibition of BCL-2 was reflected by the inhibition of cell proliferation of DoHH2 cells. Cells were plated into 96-well plates at the optimized cell density of 5000 cells/well. Plates were incubated at 37° C., with 5% CO2 for 4h. Compounds were serially diluted and added to the plates with the final concentrations of 10000, 3333.3, 1111.1, 370.4, 123.5, 41.2, 13.7, 4.6 and 1.5 nM. Plates were incubated at 37° C., with 5% CO2 for 120 h. 20 μl MTS was added into each well and the plates were incubated at 37° C., with 5% CO2 for exactly 2 h. The absorbance was measured by a microplate reader at 490 nm. IC50 was calculated using GraphPad Prism 5.0 software.

A further experiment has as its system Toledo cells. Description: Cell proliferation assay, Toledo cells (MTS, 72 h). It counts as cell-based. As to conditions: Toledo cells, MTS, read-out: Toledo IC50. A digest of the protocol: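 Toledo cells (30000/well, RPMI-1640 with 10% FBS) were preincubated for 4 h. They were then exposed to nine compound concentrations from 10000 to 1.5 nM for 72 h at 37 °C, 5% CO2. MTS was added for 2 h and absorbance read at 490 nm to give IC50.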

What is called IC50 is the concentration needed to halve the response being measured. For the compound `CC(C)c1ccccc1C1CN(C)CCN1C1CC2(CCN(c3ccc(C(=O)NS(=O)(=O)c4cnc(NCC5CCC(C)(O)CC5)c([N+](=O)[O-])c4)c(Oc4cnc5[nH]ccc5c4)c3)CC2)C1` (single isomer, unassigned) [Example A-62, (R or S)-2-((1H-pyrrolo[2,3-b]pyridin-5-yl)oxy)-N-((6-(((4-hydroxy-4-methylcyclohexyl)methyl)amino)-5-nitropyridin-3-yl)sulfonyl)-4-(2-(2-(2-isopropylphenyl)-4-methyl-piperazin-1-yl)-7-azaspiro[3.5]nonan-7-yl)benzamide], the IC50 in the experiment on DoHH2 cells (Homo sapiens, DOHH-2) is at most 1 nM; with Toledo cells (Homo sapiens), 1 nM.
As for `O=C(NS(=O)(=O)c1cc2c(c([N+](=O)[O-])c1)O[C@H](CN1CCOCC1)CO2)c1ccc(N2CCC3(CC2)CC(N2CCOC[C@H]2c2ccccc2C2CC2)C3)cc1Oc1cnc2[nH]ccc2c1` (single isomer, unassigned) [Example E-41, 2-((1H-pyrrolo [2,3-b]pyridin-5-yl)oxy)-4-(2-((R or S)-3-(2-cyclopropylphenyl)morpholino)-7-azaspiro[3.5]nonan-7-yl)-N-(((R)-2-(morpholinomethyl)-8-nitro-2,3-dihydrobenzo [b][1,4]dioxin-6-yl)sulfonyl) benzamide], the IC50 with DoHH2 cells (Homo sapiens, DOHH-2) was at most 1 nM; in the experiment with Toledo cells (Homo sapiens), 1 nM.
Taken in the same sequence, the figures for `CC(C)c1ccccc1[C@@H]1CCC[C@@H]1N1CC2(CCN(c3ccc(C(=O)NS(=O)(=O)c4cnc(NC[C@H]5CC[C@](C)(O)CC5)c([N+](=O)[O-])c4)c(Oc4cnc5[nH]ccc5c4)c3)CC2)C1` (single isomer, unassigned) [Example A-136, 2-((1H-pyrrolo[2,3-b]pyridin-5-yl)oxy)-N-((6-((((1r,4r)-4-hydroxy-4-methylcyclohexyl)methyl)amino)-5-nitropyridin-3-yl)sulfonyl)-4-(2-((1R,2R or 1S, 2S)-2-(2-isopropylphenyl)cyclo-pentyl)-2,7-diazaspiro[3.5]nonan-7-yl)benzamide] were at most 1 nM and 1 nM.
As for `CC(C)c1ccccc1C1COCCN1C1CC2(CCN(c3ccc(C(=O)NS(=O)(=O)c4cnc(NCC5CCC(N=S(C)(C)=O)CC5)c([N+](=O)[O-])c4)c(Oc4cnc5[nH]ccc5c4)c3)CC2)C1` (single isomer, unassigned) [Example A-57, 2-((1H-pyrrolo[2,3-b]pyridin-5-yl)oxy)-N-((6-((((1r,4r)-4-((dimethyl (oxo)-λ^6-sulfanylidene)amino)cyclohexyl)methyl)amrno)-5-nitro-pyridin-3-yl)sulfonyl)-4-(2-((R or S)-3-(2-isopropylphenyl)morpho-lino)-7-azaspiro[3.5]nonan-7-yl) benzamide], the IC50 was at most 1 nM with DoHH2 cells and 2 nM in the experiment with Toledo cells.
Turning to `CC(C)c1ccccc1[C@@H]1COCCN1C1CC2(CCN(c3ccc(C(=O)NS(=O)(=O)c4cnc(NC[C@H]5CC[C@](C)(O)CC5)c([N+](=O)[O-])c4)c(Oc4cnc5[nH]cc(Cl)c5c4)c3)CC2)C1` (single isomer, unassigned) [Example A-129, 2-((3-chloro-1H-pyrrolo[2,3-b]pyridin-5-yl)oxy)-N-((6-((((1r,4r)-4-hydroxy-4-methylcyclohexyl)methyl)amino)-5-nitropyridin-3-yl)sulfonyl)-4-(2-((R or S)-3-(2-isopropylphenyl)morpholino)-7-azaspiro[3.5]nonan-7-yl) benzamide], the IC50 is at most 1 nM in the experiment with DoHH2 cells (Homo sapiens, DOHH-2) and 1 nM with Toledo cells (Homo sapiens).
For `CC(C)c1ccccc1C1COCCN1C1CC2(CCN(c3ccc(C(=O)NS(=O)(=O)c4cc5c(c([N+](=O)[O-])c4)O[C@@H](CN4CCOCC4)CO5)c(Oc4cnc5[nH]ccc5c4)c3)CC2)C1` (single isomer, unassigned) [Example E-36, 2-((1H-pyrrolo [2,3-b]pyridin-5-yl)oxy)-4-(2-((R or S)-3-(2-isopropylphenyl)morpholino)-7-azaspiro[3.5]nonan-7-yl)-N-(((S)-2-(morpholinomethyl)-8-nitro-2,3-dihydrobenzo [b][1,4]dioxin-6-yl)sulfonyl)benzamide], in the experiment with DoHH2 cells (Homo sapiens, DOHH-2), the IC50 was at most 1 nM.
The same measure, in the same setting: as for `CC(C)c1ccccc1C1CCCN1C1CC2(CCN(c3ccc(C(=O)NS(=O)(=O)c4cc([N+](=O)[O-])c5c(n4)OC[C@@H](Cc4ccccc4)N5)c(Oc4cnc5[nH]ccc5c4)c3)CC2)C1` (single isomer, unassigned) [Example B-36, 2-((1H-pyrrolo[2,3-b]pyridin-5-yl)oxy)-N-(((R)-2-benzyl-8-nitro-2,3-dihydro-1H-pyrido[2,3-b] [1,4]oxazin-6-yl)sulfonyl)-4-(2-((R or S)-2-(2-isopropylphenyl)pyrrolidin-1-yl)-7-azaspiro[3.5]nonan-7-yl)benzamide], the figure is at most 1 nM.
Regarding `CC(C)c1ccccc1[C@@H]1CCCN1C1CC2(CCN(c3ccc(C(=O)NS(=O)(=O)c4cnc(NCC5CCC(C)(O)CC5)c([N+](=O)[O-])c4)c(Oc4cnc5[nH]ccc5c4)c3)CC2)C1` (stereo partly drawn) [Example A-6b, (S)-2-((1H-pyrrolo[2,3-b]pyridin-5-yl)oxy)-N-((6-(((4-hydroxy-4-methylcyclohexyl)methyl)amino)-5-nitropyridin-3-yl)sulfonyl)-4-(2-(2-(2-isopropylphenyl)pyrrolidin-1-yl)-7-azaspiro[3.5]nonan-7-yl) benzamide], the IC50 in the experiment with DoHH2 cells (Homo sapiens, DOHH-2) is at most 1 nM.
In the case of `CC1(O)CCC(CNc2ncc(S(=O)(=O)NC(=O)c3ccc(N4CCC5(CC4)CC(N4CCC[C@H]4c4ccccc4C4CC4)C5)cc3Oc3cnc4[nH]ccc4c3)cc2[N+](=O)[O-])CC1` (stereo partly drawn) [Example A-1b, (S)-2-((1H-pyrrolo[2,3-b]pyridin-5-yl)oxy)-4-(2-(2-(2-cyclopropylphenyl)pyrrolidin-1-yl)-7-azaspiro[3.5]nonan-7-yl)-N-((6-(((4-hydroxy-4-methylcyclohexyl)methyl)amino)-5-nitropyridin-3-yl)sulfonyl)benzamide], the IC50 in the experiment with DoHH2 cells (Homo sapiens, DOHH-2) is at most 1 nM.
In the experiment on DoHH2 cells (Homo sapiens, DOHH-2), `O=C(NS(=O)(=O)c1cc([N+](=O)[O-])c2c(n1)OC[C@H](COC1CCOCC1)N2)c1ccc(N2CCC3(CC2)CC(N2CCCC2c2ccccc2C2CC2)C3)cc1Oc1cnc2[nH]ccc2c1` (single isomer, unassigned) [Example B-46, 2-((1H-pyrrolo[2,3-b]pyridin-5-yl)oxy)-4-(2-((R or S)-2-(2-cyclopropylphenyl)pyrrolidin-1-yl)-7-azaspiro[3.5]nonan-7-yl)-N-(((S)-8-nitro-2-(((tetrahydro-2H-pyran-4-yl)oxy)methyl)-2,3-dihydro-1H-pyrido[2,3-b] [1,4]oxazin-6-yl)sulfonyl)benzamide] had an IC50 of at most 1 nM.
The same measure, in the same setting: as for `CC(C)c1ccccc1C1COCCN1C1CC2(CCN(c3ccc(C(=O)NS(=O)(=O)c4cc5c(c([N+](=O)[O-])c4)N[C@@H](CN4CCC(NS(C)(=O)=O)CC4)CO5)c(Oc4cnc5[nH]ccc5c4)c3)CC2)C1` (single isomer, unassigned) [Example D-23, 2-((1H-pyrrolo[2,3-b]pyridin-5-yl)oxy)-4-(2-((R or S)-3-(2-isopropylphenyl)morpholino)-7-azaspiro[3.5]nonan-7-yl)-N-(((S)-3-((4-(methylsulfonamido)piperidin-1-yl)methyl)-5-nitro-3,4-dihydro-2H-benzo[b][1,4]oxazin-7-yl)sulfonyl)benzamide], the figure is at most 1 nM.
